Here are results for 1 compound from ChEMBL document CHEMBL1133142, “Synthesis of dolichyl phosphate derivatives with fluorescent label at the omega-end of the chain, new tools to study protein glycosylation” (Bioorg Med Chem Lett, 2000).

For test [1], the system named is Saccharomyces cerevisiae. The test can be described thus: Tested for the kinetic constant (Km) against the enzyme Dolichyl phosphate mannose synthase.
Test [2] concerns Saccharomyces cerevisiae. As to the kind of experiment: Tested for the kinetic parameter relative Kcat on Dolichyl phosphate mannose synthase.

For the compound `C/C(=C\CC/C(C)=C/CC/C(C)=C/CC/C(C)=C/CC/C(C)=C/CC/C(C)=C/CC/C(C)=C/CCC(C)CCOP(=O)(O)O)CC/C=C(\C)CC/C=C(\C)CC/C=C(\C)CC/C=C(\C)CC/C=C(\C)CC/C=C(\C)CC/C=C(\C)CCCNc1cccc2ccccc12` (configuration not stated), in the test on Saccharomyces cerevisiae [1], the Michaelis constant (Km) stood at 11.7 µM. This compound also registered a k cat in the test on Saccharomyces cerevisiae [2] of 1.27.
